Tests used:
differentiating ES cells = assay: Apoptosis (TUNEL) in ceramide-depleted differentiating ES cells and its restoration by ceramide or analogs; format: cell-based, mouse
Experimental: Fumonisin B1 (FB1) or myriocin-treated (ceramide-depleted) differentiating ES cells were incubated with natural ceramide. To prepare the natural ceramide, 50 mg of EBs or NPs were resuspended in 500 μl of water, and after phase separation with 500 μl of CHCl3/CH3OH (1:1 by vol.) the neutral lipids were recovered from the lower phase. The neutral lipids were evaporated to dryness with a gentle stream of nitrogen and redissolved in 1 ml of CHCl3. The solution was applied to a silicic acid gel column (0.5 g) and fatty acids and cholesterol washed out with another 15 ml of CHCl3 (Dasgupta and Hogan, 2001 J. Lipid Res., 42:301-308). The ceramide fraction was then eluted with 20 ml of CHCl3/acetone (9:1, by vol.), evaporated to dryness, and the residue (approximately 6 nmoles of ceramide) dissolved in 20 μl of ethanol containing 2% dodecane (vol./vol.). Aliquots of 5 μl were mixed with 1 ml of medium, yielding a final concentration of 1.5 μM natural ceramide for induction of apoptosis (Ji et al., 1995 FEBS Lett., 358:211-214).
Differentiating ES cells at the EB8 cells were dissociated and grown for 24 hours on laminin/ornithin-coated cover slips (NP1 stage) in DMEM/F12 (50/50), supplemented with 1×N2 and 20 ng/ml FGF-2. Cells were incubated for 3 hours with 10 μM bromodeoxyuridine (BrdU) and the TUNEL assay or immunostainings performed after 5 hours of incubation. For immunostaining, cells were fixed with 4% paraformaldehyde in phosphate-buffered saline (PBS). Fixed cells were permeabilized with 0.2% Triton X-100 in PBS for 5 minutes at room temperature and immunostaining performed as described previously (Bieberich et al., 2001 J. Biol. Chem., 276:44396-44404). The nuclei were stained by treatment with 2 μg/ml Hoechst 33258 in PBS for 30 minutes at room temperature. Apoptotic nuclei were stained using the fluorescein FragEL TUNEL assay according to instructions of the manufacturer (Oncogene).
The degree of apoptosis in differentiating ES cultures was determined since it was previously proposed that ceramide elevation induces apoptosis in NPs (Bieberch et al., 2001 J. Biol. Chem., 276:44396-44404). […] Apoptosis was elevated at the EB8 stage ([…]), and was highest at the NP2 stage (35+/−5%). […] Apoptosis was restored by the addition of 30 μM N-acetyl sphingosine (C2-ceramide), 80 μM of the novel ceramide analog N-oleoyl serinol (S18), or 1 μM of natural ceramide that was extracted from differentiating ES cells.

[1] = tested on: seeded sfEBMs derived from HESC colonies; assay: S18 treatment of seeded serum free embryoid bodies (sfEBMs), morphology and DAPI staining; format: cell-based, human
Source text: sfEBMs were derived from domed HESC colonies, grown in suspension for 24 days with one passage, and seeded to polyornithine/laminin coated chamber slides in DMEM/F12, supplemented with 1×N2 (Gibco), and 1% FCS.
Apoptosis in seeded serum free embryoid bodies was monitored by morphological observation of cell death and DAPI staining to reveal apoptotic nuclei. Apoptotic nuclei were observed as obviously fragmented and degenerating nuclei, with small punctuate patterns of DAPI staining. Rosette regions from essentially serum free embryoid bodies in suspension were passaged further in the same medium, either withdrawing S18 or culturing the embryoid bodies for an additional 4 to 8 days in the presence of S18. Rosette regions were then seeded onto polyornithine/laminin coated slides for analysis of proliferation and differentiation to neural lineages.

sfEBMs in suspension = assay: S18 treatment of sfEBMs in suspension, histology and immunocytochemistry; format: cell-based, human
Experimental: To perform immunostaining on fixed cells or cytospins, the samples were washed in block buffer (3% goat serum, 1% polyvinyl Pyrolidone, 0.3% Triton X-100 in wash buffer) for 30 minutes, and then incubated with the appropriate dilution of the primary antibody, or combination of antibodies for 4-6 hours at room temperature. The primary antibodies were anti-Map2, a mouse monoclonal antibody recognizing the Map-2 a, b and c isoforms (Sigma, Catalog # M4403) at a 1/500 dilution; anti-Nestin, a rabbit polyclonal antibody (Chemicon, Catalog # AB5922) at a 1/200 dilution; anti-Oct-4, a rabbit polyclonal antibody (Santa Cruz, Catalog # sc-9081) at a 1/200 dilution; sheep anti-Tyrosine Hydroxlyase (TH) antibody (Pel-Freez, Catalog # P60101-0) at a 1/500 dilution; anti-phosphoHistoneH3, a rabbit polyclonal antibody (Upstate, Catalog, # 06-570) at a 1/400 dilution; anti-SSEA4, a mouse monoclonal antibody (Developmental Studies Hybridoma Bank, Catalog # MC-813-70) at a ⅕ dilution. The cells were then washed in wash buffer (50 mM Tris-HCL pH 7.5, and 2.5 mM NaCl) 3 times for 5 minutes each wash. The cells were then incubated for a minimum of 2 hours in secondary antibodies diluted 1:1000, followed by washing in wash buffer. The secondary antibodies were appropriate combinations of Alexa-350 (blue), -488 (green) or -568 (red) conjugated goat anti-chicken, anti-rabbit, anti-sheep or anti-mouse antibodies, all available from Molecular Probes. Some samples were stained with 5 ng/ml DAPI to detect cell nuclei, and were then washed from overnight to 2 days in a large volume of wash buffer. The slides were mounted with mounting medium and a cover slip. Slides were visualized using either a NIKON TS100 inverted microscope or a NIKON TE 2000-S inverted microscope with a Q Imaging digital camera
Essentially serum free embryoid bodies (sfEBMs) were generated as described in Example 6, and were exposed to S18 at different stages of their development in order to assess the timing of depletion of high Oct-4 expressing cells, and in order to determine when neural rosettes could be selected. The sfEBMs in suspension were treated with 10 μM S18 in 50% DMEM/F12, 50% MEDII, supplemented with 1×N2, Glutamine (20 mM), penicillin (0.5 U/ml), and streptomycin (0.5 U/ml) for varying amounts of time, and the sfEBMs were then evaluated histologically and by immunocytochemistry.
Essentially serum free embryoid bodies were derived from protease passaged cells and grown in the presence of 50% MEDII conditioned medium. The embryoid bodies were exposed to 10 μM S18 in the same medium from day 6 to 9 after derivation. At day 9 the S18 treated sfFBMs and matched control sfEBMs not exposed to S18 were fixed, embedded in plastic, cut to 3 micron sections and stained with DAPI to enable the precise determination of the proportion of the total healthy nuclei of an sfEBM that were rosette cell nuclei.

[2] = FB1-treated cells at the NP2 stage
[3] = sfEBMs at day 14, 48 hours exposure to 10 μM S18

Compound: CCCCCCCC/C=C\CCCCCCCC(=O)NC(CO)CO [S18, N-(2-hydroxy-1-(hydroxymethyl)ethyl)-oleoylamide]
- dependence of apoptosis on PAR-4 expression (differentiating ES cells; [2]): only seen in cells that expressed PAR-4
- number of PAR-4 positive cells (differentiating ES cells; [2]): did not alter the number of PAR-4 positive cells
- restoration of apoptosis in FB1-treated cells (differentiating ES cells; NP2 stage, 30 μM C2-ceramide, 80 μM S18, or 1 μM natural ceramide): restored
- concentration of endogenous ceramide (differentiating ES cells; S18 incubation of FB1-treated cells at the NP2 stage): did not alter the concentration of endogenous ceramide
- time until effect was observed ([1]; 6, 8 or 10 μM S18): ≤ 24 h
- effect on neural rosette structures ([1]; 6, 8 or 10 μM S18 for 36 hours): did not appear to be adversely affected
- induction of apoptosis in the culture ([1]; 6, 8 or 10 μM S18 for 36 hours): induced apoptosis of a large proportion of the culture
- cell death ([1]; 36 hours exposure to 6 μM S18): a high proportion of cells within these cultures have been killed
- cell death ([1]; 36 hours exposure to 8 μM S18): a high degree of cell death is apparent
- viable embryoid bodies derived from monolayer crater cells (sfEBMs in suspension; 10 μM S18, four days): No viable embryoid bodies were observed
- regions of high Oct-4 expression (residual pluripotent cells) (sfEBMs in suspension; S18 selected sfEBM (10 μM) seeded at day 21, anti-Oct-4 staining): no regions of high Oct-4 expression could be detected
- mitotic activity of neural rosette precursor cells (phosphoHistone H3) (sfEBMs in suspension; day 28 after derivation, 8 days after withdrawal of S18): still mitotically active
- presumptive dopaminergic neurons or their precursors (anti-TH staining) (sfEBMs in suspension; exposure to 10 μM S18): not ablated
- apoptosis in sfEBMs (sfEBMs in suspension; [3]): extensive apoptosis in the bodies
- morphology of rosette regions (sfEBMs in suspension; [3]): morphologically normal
- population surviving incubation (DAPI stained sections) (sfEBMs in suspension; sfEBMs from protease passaged cells, 10 μM S18 from day 6 to 9): a very pure population of neural precursor rosette cells had survived

— patent publication US7445931B2, “Compositions and methods for enrichment of neural stem cells using ceramide analogs” (Bresagen, Inc., priority 2002, dated 2008)
